Measured values as given in US20260250290A1 (BRISTOL-MYERS SQUIBB COMPANY, priority 2023, published 2026).
Counter-ions that a name gives are not always drawn.

Target: T1, full length SGK1 (Homo sapiens, UniProt O00141)
T1 construct: 125 μM full length SGK1 (Life Technologies Part #PR7358A); purchased Life Technologies PR7358A
T1 sequence (O00141 1-431): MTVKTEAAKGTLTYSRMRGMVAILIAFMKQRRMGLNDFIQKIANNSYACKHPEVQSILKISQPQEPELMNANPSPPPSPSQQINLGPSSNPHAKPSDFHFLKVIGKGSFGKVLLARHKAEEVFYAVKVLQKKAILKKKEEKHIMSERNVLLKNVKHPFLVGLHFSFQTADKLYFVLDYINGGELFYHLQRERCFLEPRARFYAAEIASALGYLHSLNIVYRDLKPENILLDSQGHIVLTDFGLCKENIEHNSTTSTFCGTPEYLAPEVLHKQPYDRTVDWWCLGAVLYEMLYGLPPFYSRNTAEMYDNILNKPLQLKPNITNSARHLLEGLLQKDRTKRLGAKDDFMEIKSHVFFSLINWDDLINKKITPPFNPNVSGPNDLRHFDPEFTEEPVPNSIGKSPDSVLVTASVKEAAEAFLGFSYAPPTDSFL
Experiment: SGK1 inhibition Assay A (Caliper LabChip electrophoretic separation of fluorescent peptide substrate and phosphorylated product)
Format: biochemical
Details: Assay A; 20 μM ATP, 40 min incubation; read-out: SGK1 IC50

Compound | IC50 [nM]
COc1cc(C(=O)N[C@@H]2CCCN(c3cc(C4=CN(S(C)(=O)=O)CC4)n4ncnc(N)c34)C2)ccn1 [Example 115, (R)—N-(1-(4-amino-7-(1-(methylsulfonyl)-4,5-dihydro-1H-pyrrol-3-yl)pyrrolo[2,1-f][1,2,4]triazin-5-yl)piperidin-3-yl)-2-methoxyisonicotinamide] | 103
CN(C)CCOc1cc(C(F)F)sc1C(=O)N[C@@H]1CCCN(c2cc(-c3ccc(C#N)c(F)c3)n3ncnc(N)c23)C1 [Example 313] | 4
CN(C)CCOc1cc(Cl)sc1C(=O)N[C@@H]1CCCN(c2cc(-c3ccc(-n4cnnn4)cc3)n3ncnc(N)c23)C1 [Example 187, (R)-N-(1-(7-(4-(1H-tetrazol-1-yl)phenyl)-4-aminopyrrolo[2,1-f][1,2,4]triazin-5-yl)piperidin-3-yl)-5-chloro-3-(2-(dimethylamino)ethoxy) thiophene-2-carboxamide, 2 TFA] | 6
CN(C)CCn1c(C(=O)N[C@@H]2CCCN(c3cc(-c4ccc(C#N)nc4)n4ncnc(N)c34)C2)cc2ccccc21 [Example 506, (R)-N-(1-(4-amino-7-(6-cyanopyridin-3-yl)pyrrolo[2,1-f][1,2,4]triazin-5-yl)piperidin-3-yl)-1-(2-(dimethylamino)ethyl)-1H-indole-2-carboxamide] | 886
CC(C)c1cccc(C(=O)N[C@@H]2CCCN(c3cc(-c4ccc(S(C)(=O)=O)cc4)n4ncnc(N)c34)C2)c1 [Example 81, (R)-N-(1-(4-amino-7-(4-(methylsulfonyl)phenyl)pyrrolo[2,1-f][1,2,4]triazin-5-yl)piperidin-3-yl)-3-isopropylbenzamide] | 32
Nc1ncnn2c(-c3cncnc3)cc(N3CCC[C@@H](NC(=O)c4cc5ccccc5s4)C3)c12 [Example 646, (R)-N-(1-(4-amino-7-(pyrimidin-5-yl)pyrrolo[2,1-f][1,2,4]triazin-5-yl)piperidin-3-yl)benzo[b]thiophene-2-carboxamide] | 8
CS(=O)(=O)c1ccc(-c2cc(N3CCC[C@@H](NC(=O)c4cnc[nH]4)C3)c3c(N)ncnn23)cc1 [Example 37, (R)-N-(1-(4-amino-7-(4-(methylsulfonyl)phenyl)pyrrolo[2,1-f][1,2,4]triazin-5-yl)piperidin-3-yl)-1H-imidazole-5-carboxamide, TFA] | 136
CS(=O)(=O)N1CC=C(c2cc(N3CCC[C@@H](NC(=O)c4cccs4)C3)c3c(N)ncnn23)C1 [Example 135, (R)—N-(1-(4-amino-7-(1-(methylsulfonyl)-2,5-dihydro-1H-pyrrol-3-yl)pyrrolo[2,1-f][1,2,4]triazin-5-yl)piperidin-3-yl)thiophene-2-carboxamide, TFA] | 3

Other lines, results leading:

IC50 [nM] | Compound
7 | COC(=O)N1CC=C(c2cc(N3CCC[C@@H](NC(=O)c4ccc(Cl)s4)C3)c3c(N)ncnn23)C1 [Example 138, methyl (R)-3-(4-amino-5-(3-(5-chlorothiophene-2-carboxamido)piperidin-1-yl)pyrrolo[2,1-f][1,2,4]triazin-7-yl)-2,5-dihydro-1H-pyrrole-1-carboxylate, TFA]
214 | Nc1ncnn2c(C3=CCN(CC(=O)O)C3)cc(N3CCC[C@@H](NC(=O)c4ccc(Cl)s4)C3)c12 [Example 912, (R)-2-(3-(4-amino-5-(3-(5-chlorothiophene-2-carboxamido)piperidin-1-yl)pyrrolo[2,1-f][1,2,4]triazin-7-yl)-2,5-dihydro-1H-pyrrol-1-yl)acetic acid]
57 | CC(=O)N1CC=C(c2cc(N3CCC[C@@H](NC(=O)c4sc(Cl)cc4OC4CN(CC(F)F)C4)C3)c3c(N)ncnn23)C1 [Example 384, (R)-N-(1-(7-(1-acetyl-2,5-dihydro-1H-pyrrol-3-yl)-4-aminopyrrolo[2,1-f][1,2,4]triazin-5-yl)piperidin-3-yl)-5-chloro-3-((1-(2,2-difluoroethyl)azetidin-3-yl)oxy)thiophene-2-carboxamide]
310 | CC(=O)N1CC=C(c2cc(N3CCC[C@@H](NC(=O)c4sc(C(F)F)cc4C4CCN(C(C)C)C4)C3)c3c(N)ncnn23)C1 (stereo partly drawn) [Example 399, N-((R)-1-(7-(1-acetyl-2,5-dihydro-1H-pyrrol-3-yl)-4-aminopyrrolo[2,1-f][1,2,4]triazin-5-yl)piperidin-3-yl)-5-(difluoromethyl)-3-(1-isopropylpyrrolidin-3-yl)thiophene-2-carboxamide]
344 | COc1cc(C#N)ccc1C(=O)N[C@@H]1CCCN(c2cc(C3=CCN(C(C)=O)C3)n3ncnc(N)c23)C1 [Example 496, (R)-N-(1-(7-(1-acetyl-2,5-dihydro-1H-pyrrol-3-yl)-4-aminopyrrolo[2,1-f][1,2,4]triazin-5-yl)piperidin-3-yl)-4-cyano-2-methoxybenzamide]
3 | COC(=O)N1CC=C(c2cc(N3CCC[C@@H](NC(=O)c4sc(C5CC5)cc4OC4CNC4)C3)c3c(N)ncnn23)C1 [Example 388, methyl (R)-3-(4-amino-5-(3-(3-(azetidin-3-yloxy)-5-cyclopropylthiophene-2-carboxamido)piperidin-1-yl)pyrrolo[2,1-f][1,2,4]triazin-7-yl)-2,5-dihydro-1H-pyrrole-1-carboxylate]
7 | CC(=O)N1CC=C(c2cc(N3CCC[C@@H](NC(=O)c4cccc(N5CC[C@@H](O)C5)n4)C3)c3c(N)ncnn23)C1 [Example 770, N-((R)-1-(7-(1-acetyl-2,5-dihydro-1H-pyrrol-3-yl)-4-aminopyrrolo[2,1-f][1,2,4]triazin-5-yl)piperidin-3-yl)-6-((R)-3-hydroxypyrrolidin-1-yl)picolinamide]
28 | CC(=O)N1CC=C(c2cc(N3CCC[C@@H](NC(=O)c4cc(N5CCOCC5)cs4)C3)c3c(N)ncnn23)C1 [Example 272, (R)—N-(1-(7-(1-acetyl-2,5-dihydro-1H-pyrrol-3-yl)-4-aminopyrrolo[2,1-f][1,2,4]triazin-5-yl)piperidin-3-yl)-4-morpholinothiophene-2-carboxamide]
2 | NC(=O)c1ccc(-c2cc(N3CCC[C@@H](NC(=O)c4sc(Cl)cc4OC4CC5(CNC5)C4)C3)c3c(N)ncnn23)cc1F [Example 590, (R)-3-((2-azaspiro[3.3]heptan-6-yl)oxy)-N-(1-(4-amino-7-(4-carbamoyl-3-fluorophenyl)pyrrolo[2,1-f][1,2,4]triazin-5-yl)piperidin-3-yl)-5-chlorothiophene-2-carboxamide]
8 | CC(=O)N1CC=C(c2cc(N3CCC[C@@H](NC(=O)c4nc(N5CCN(C)CC5)ccc4F)C3)c3c(N)ncnn23)C1 [Example 744, (R)-N-(1-(7-(1-acetyl-2,5-dihydro-1H-pyrrol-3-yl)-4-aminopyrrolo[2,1-f][1,2,4]triazin-5-yl)piperidin-3-yl)-3-fluoro-6-(4-methylpiperazin-1-yl)picolinamide]
50 | CC(=O)N1CC=C(c2cc(N3CCC[C@@H](NC(=O)c4sc(Cl)cc4OC4CCN(C5CC5)CC4)C3)c3c(N)ncnn23)C1 [Example 615, (R)—N-(1-(7-(1-acetyl-2,5-dihydro-1H-pyrrol-3-yl)-4-aminopyrrolo[2,1-f][1,2,4]triazin-5-yl)piperidin-3-yl)-5-chloro-3-((1-cyclopropylpiperidin-4-yl)oxy)thiophene-2-carboxamide]
